The values that follow come from publication PMC2656214, “A circuit supporting concentration-invariant odor perception in Drosophila” (Journal of Biology, 2009).

Holding throughout (experiment): G-CaMP calcium imaging of OSN axon terminals
What all share (assay type): cell-based
Common to all, as to details: 10^-2 odor dilution in paraffin oil, 1 s pulse

The target of test [1] is T1, Or42a (Drosophila melanogaster, UniProt Q9V9I2).
T1 construct: native receptor in Or42a olfactory sensory neuron of larva; G-CaMP calcium imaging; with Odorant receptor coreceptor
T1 sequence (Q9V9I2 1-406): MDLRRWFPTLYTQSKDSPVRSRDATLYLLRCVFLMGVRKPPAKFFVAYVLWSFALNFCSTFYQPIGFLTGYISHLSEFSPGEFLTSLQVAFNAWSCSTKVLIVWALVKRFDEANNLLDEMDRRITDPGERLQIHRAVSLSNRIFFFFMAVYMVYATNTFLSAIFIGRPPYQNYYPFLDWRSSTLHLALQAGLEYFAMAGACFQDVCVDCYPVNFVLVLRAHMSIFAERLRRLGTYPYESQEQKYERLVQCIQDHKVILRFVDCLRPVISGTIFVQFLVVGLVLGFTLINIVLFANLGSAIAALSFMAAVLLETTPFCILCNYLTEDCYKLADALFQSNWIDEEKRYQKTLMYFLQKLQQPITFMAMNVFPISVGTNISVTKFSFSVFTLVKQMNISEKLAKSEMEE
T1 sequence (Q9VNB5 1-486 partner): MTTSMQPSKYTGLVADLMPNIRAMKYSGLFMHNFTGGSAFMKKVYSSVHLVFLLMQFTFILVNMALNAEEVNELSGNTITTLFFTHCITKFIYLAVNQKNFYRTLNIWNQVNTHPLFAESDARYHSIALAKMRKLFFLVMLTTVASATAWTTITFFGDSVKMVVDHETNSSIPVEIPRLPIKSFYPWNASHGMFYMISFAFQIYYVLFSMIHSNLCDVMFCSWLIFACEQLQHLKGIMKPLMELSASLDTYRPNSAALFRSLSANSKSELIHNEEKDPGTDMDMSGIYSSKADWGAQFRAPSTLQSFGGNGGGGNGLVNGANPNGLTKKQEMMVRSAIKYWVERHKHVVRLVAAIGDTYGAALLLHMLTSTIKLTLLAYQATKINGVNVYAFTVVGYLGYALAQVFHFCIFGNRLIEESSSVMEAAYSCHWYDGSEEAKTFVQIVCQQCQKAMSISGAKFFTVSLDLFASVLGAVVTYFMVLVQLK

Test [2] concerns the target T2, Or35a (Drosophila melanogaster, UniProt Q9V3Q2).
T2 construct: native receptor in Or35a olfactory sensory neuron of larva; G-CaMP1.3 calcium imaging at axon terminals; with Odorant receptor coreceptor
T2 sequence (Q9V3Q2 1-409): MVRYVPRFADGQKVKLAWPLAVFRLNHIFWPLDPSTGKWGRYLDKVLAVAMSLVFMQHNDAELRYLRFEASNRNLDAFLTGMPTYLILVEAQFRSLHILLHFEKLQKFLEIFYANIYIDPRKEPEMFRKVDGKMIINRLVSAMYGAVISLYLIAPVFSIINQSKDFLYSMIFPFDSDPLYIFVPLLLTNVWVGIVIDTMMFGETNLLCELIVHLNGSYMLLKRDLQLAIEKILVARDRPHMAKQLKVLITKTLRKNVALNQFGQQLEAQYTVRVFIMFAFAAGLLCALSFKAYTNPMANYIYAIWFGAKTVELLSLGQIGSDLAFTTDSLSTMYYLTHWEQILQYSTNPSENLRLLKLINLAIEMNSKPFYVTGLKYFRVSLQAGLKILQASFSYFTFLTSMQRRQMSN
T2 sequence (Q9VNB5 1-486 partner): T1 sequence (Q9VNB5 1-486 partner)

For test [3], the target named is T3, Or82a (Drosophila melanogaster, UniProt P82986).
T3 construct: native receptor in Or82a olfactory sensory neuron of larva; G-CaMP1.3 calcium imaging at axon terminals; with Odorant receptor coreceptor
T3 sequence (P82986 1-385): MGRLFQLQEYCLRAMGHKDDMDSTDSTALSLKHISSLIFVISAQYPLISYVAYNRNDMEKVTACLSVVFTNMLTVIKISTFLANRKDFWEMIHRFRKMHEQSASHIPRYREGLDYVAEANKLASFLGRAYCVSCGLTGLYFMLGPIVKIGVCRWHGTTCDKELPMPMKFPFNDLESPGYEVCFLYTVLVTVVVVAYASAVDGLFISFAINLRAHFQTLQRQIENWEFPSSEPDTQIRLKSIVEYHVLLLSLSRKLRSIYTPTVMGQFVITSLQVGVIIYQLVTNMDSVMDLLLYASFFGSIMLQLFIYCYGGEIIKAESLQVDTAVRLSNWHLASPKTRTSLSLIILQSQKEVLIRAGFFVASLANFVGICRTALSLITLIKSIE
T3 sequence (Q9VNB5 1-486 partner): T1 sequence (Q9VNB5 1-486 partner)

Take `CCCCCC(C)=O` [2-Heptanone]: in test [1], the “G-CaMP calcium imaging of OSN axon terminals” value (shortened to “G-CaMP calcium imaging”) is reported as 2-Heptanone, which selectively activates Or42a but not Or42b OSNs. In the case of `O=C1CCCCC1` [cyclohexanone], the “G-CaMP calcium imaging” value in test [2] was “hexyl acetate and cyclohexanone selectively activated only Or35a”. As for `CC(=O)OC/C=C(\C)CCC=C(C)C` [geranyl acetate], in test [3], the “G-CaMP calcium imaging” value was “Or82a-expressing neurons responded only to geranyl acetate”.

As to `CCCCCCOC(C)=O` [hexyl acetate], the “G-CaMP calcium imaging” value in test [2] is “hexyl acetate and cyclohexanone selectively activated only Or35a”.
